From patent publication US9181183B2, “Prostaglandin D synthase inhibitory piperidine compounds” (Taiho Pharmaceutical Co., Ltd., priority 2010, dated 2015)

These molecules were tested against human H-PGDS (Homo sapiens, UniProt O60760) (assay: Hematopoietic prostaglandin D synthase (H-PGDS) inhibiting action, [14C]PGH2 to PGD2 conversion, TLC radioassay). Details: compound 0.1 μM; inhibition rate relative to solvent control group; [14C] prostaglandin H2 10 μM, 25° C.
Format: biochemical
Method: The test was carried out according to the method of Urade, Y. et al. (J. Biol. Chem., 262, 3820-3825, (1987)). More specifically, a reaction mixture (49 μL) containing 100 mM Tris-HCl (pH 8.0), 1 mM reduced form glutathione, 0.1 mg/mL γ-globulin, human H-PGDS (q.s.), and a compound (0.1 μM) was preincubated at 25° C. for 5 minutes. A DMSO solution (final concentration: 1%) was added to the solvent control group. Subsequently, 1 μL of [^14C] prostaglandin H2 (final concentration: 10 μM) was added to start the reaction. One minute after the start of the reaction, 250 μL of a reaction stopper solution (diethylether/methanol/1M citric acid (30/4/1)) cooled with ice was added to stop the reaction. After the reaction was stopped, 50 μL of the upper layer portion (organic solvent phase) was applied to a TLC plate and developed at −20° C. for 45 minutes (developing solvent: diethylether/methanol/acetic acid (90/2/1)). After the TLC plate was dried and exposed to an imaging plate for 1 to 24 hours, the radioactivity corresponding to prostaglandin D2 (PGD2) was analyzed using an image analyzer (produced by Fujifilm Corporation). The area (%) occupied by the PGD2 band per lane and the inhibition rate (%) of each Example compound at 0.1 μM relative to the control group in each experiment were calculated.

human H-PGDS, sequence (O60760 whole entry): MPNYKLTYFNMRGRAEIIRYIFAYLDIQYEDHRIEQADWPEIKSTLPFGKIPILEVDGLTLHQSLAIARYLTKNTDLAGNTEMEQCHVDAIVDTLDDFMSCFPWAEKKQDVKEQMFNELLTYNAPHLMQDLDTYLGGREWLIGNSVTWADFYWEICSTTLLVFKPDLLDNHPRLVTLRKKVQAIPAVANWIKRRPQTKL

Row | Molecule | H-PGDS inh. (% at 0.1 μM)
1 | N-(4-(4-(morpholin-1-yl-carbonyl)piperidin-1-yl)phenyl)-2-(4-(pyridin-2-ylmethylene)piperidine-1-carboxamido)thiazole-5-carboxamide [Example 15] | 68.6%
2 | N-(4-(morpholin-1-yl-carbonyl)phenyl)-2-(4-(pyridin-2-ylmethylene)piperidine-1-carboxamido)thiazole-5-carboxamide [Example 19] | 55.1%
3 | N-(6-(1H-1,2,3-triazol-1-ylmethyl)acetamide)benzo[d]thiazol-2-yl)-4-(pyridin-2-ylmethylene)-piperidine-1-carboxamide [Example 12] | 52.5%

Same assay, conditions: compound 0.1 μM; inhibition rate relative to solvent control group; [14C] prostaglandin H2 10 μM, 25° C.; read-out: H-PGDS inh. (% at 0.1 μM)

Row | Molecule | inhibition at 0.1 µM
4 | COc1ccc(-c2ccc3nc(NC(=O)N4CCC(=Cc5ccccn5)CC4)sc3c2)cn1 [Example 7, N-(6-(2-methoxypyridin-5-yl)-benzo[d]thiazol-2-yl)-4-(pyridin-2-ylmethylene)-piperidine-1-carboxamide] | 74.2%
5 | CC(C)(C)C(=O)N1CCC(NC(=O)N2CCC(=Cc3cc(F)ccc3F)CC2)CC1 [Example 46, 4-(2,5-difluorobenzylidene)-N-(1-pivaloylpiperidin-4-yl)piperidine-1-carboxamide] | 77.3%
6 | O=C(Nc1ccc(NC(=O)N2CCC(=Cc3cc(F)ccc3F)CC2)cn1)c1ccccn1 [Example 79, N-(5-(4-(2,5-difluorobenzylidene)piperidine-1-carboxamido)pyridin-2-yl)picolinamide] | 56.8%
7 | O=C(NC1CCN(C(=O)C2CCCCC2)CC1)N1CCC(=Cc2cc(F)ccc2F)CC1 [Example 49, N-(1-(cyclohexanecarbonyl)piperidin-4-yl)-4-(2,5-difluorobenzylidene)piperidine-1-carboxamide] | 39.6%
8 | CN(C)C(=O)N1CCC(NC(=O)N2CCC(=Cc3cc(F)ccc3F)CC2)CC1 [Example 52, 4-(4-(2,5-difluorobenzylidene)piperidine-1-carboxamido)-N,N-dimethylpiperidine-1-carboxamide] | 74.6%
9 | O=C(Nc1ccc(NC(=O)N2CCC(=Cc3cc(F)ccc3F)CC2)cc1)c1ccsc1 [Example 76, 4-(2,5-difluorobenzylidene)-N-(4-(thiophene-3-carboxamido)phenyl)piperidine-1-carboxamide] | 79.4%
10 | O=C(Nc1ncc(Cn2cncn2)s1)N1CCC(=Cc2cc(F)ccc2F)CC1 [Example 81, N-(5-((1H-1,2,4-triazol-1-yl)methyl)thiazol-2-yl)-4-(2,5-difluorobenzylidene)piperidine-1-carboxamide] | 72.8%
11 | Nc1ccc2nc(NC(=O)N3CCC(=Cc4ccccn4)CC3)sc2c1 [Example 10, N-(6-aminobenzo[d]thiazol-2-yl)-4-(pyridin-2-ylmethylene)-piperidine-1-carboxamide] | 61.9%
12 | O=C(Nc1ccc(NC(=O)N2CCC(=Cc3cc(F)ccc3F)CC2)cc1)c1ccccn1 [Example 74, N-(4-(4-(2,5-difluorobenzylidene)piperidine-1-carboxamido)phenyl)picolinamide] | 70.9%
13 | Cc1ccnc(C(=O)N2CCC(NC(=O)N3CCC(=Cc4cc(F)ccc4F)CC3)CC2)c1 [Example 63, 4-(2,5-difluorobenzylidene)-N-(1-(4-methylpicolinoyl)piperidin-4-yl)piperidine-1-carboxamide] | 64.7%
14 | O=C(NC1CCN(C(=O)C2CC2)CC1)N1CCC(=Cc2cc(F)ccc2F)CC1 [Example 45, N-(1-(cyclopropanecarbonyl)piperidin-4-yl)-4-(2,5-difluorobenzylidene)piperidine-1-carboxamide] | 48.8%
15 | Cc1noc(C)c1-c1ccc2nc(NC(=O)N3CCC(=Cc4ccccn4)CC3)sc2c1 [Example 4, N-(6-(3,5-dimethylisoxazol-4-yl)-benzo[d]thiazol-2-yl)-4-(pyridin-2-ylmethylene)-piperidine-1-carboxamide] | 62.9%
16 | O=C(Nc1ccc(NC(=O)N2CCC(=Cc3cc(F)ccc3F)CC2)cn1)c1cscn1 [Example 80, N-(5-(4-(2,5-difluorobenzylidene)piperidine-1-carboxamido)pyridin-2-yl)thiazole-4-carboxamide] | 66%
17 | O=C(Nc1ccc(-c2cnc(NC(=O)N3CCC(=Cc4ccccn4)CC3)s2)cc1)c1cscn1 [Example 26, N-(4-(2-(4-(pyridin-2-ylmethylene)piperidine-1-carboxamido)thiazol-5-yl)phenyl)thiazole-4-carboxamide] | 57.4%
18 | CC(C)C(=O)N1CCC(NC(=O)N2CCC(=Cc3cc(F)ccc3F)CC2)CC1 [Example 48, 4-(2,5-difluorobenzylidene)-N-(1-isobutyrylpiperidin-4-yl)piperidine-1-carboxamide] | 65.7%
19 | O=C(NC1CCN(CC(F)F)CC1)N1CCC(=Cc2cc(F)ccc2F)CC1 [Example 44, 4-(2,5-difluorobenzylidene)-N-(1-(2,2-difluoroethyl)piperidin-4-yl)piperidine-1-carboxamide] | 81%

Row | Molecule | inhibition at 0.1 µM
20 | COc1ncccc1-c1ccc2nc(NC(=O)N3CCC(=Cc4ccccn4)CC3)sc2c1 [Example 9, N-(6-(2-methoxypyridin-3-yl)-benzo[d]thiazol-2-yl)-4-(pyridin-2-ylmethylene)-piperidine-1-carboxamide] | 76.6%
21 | O=C(Nc1nc2ccc(-c3cccs3)cc2s1)N1CCC(=Cc2ccccn2)CC1 [Example 8, N-(6-(thiophen-2-yl)-benzo[d]thiazol-2-yl)-4-(pyridin-2-ylmethylene)-piperidine-1-carboxamide] | 80%
22 | O=C(Nc1ccc(OCc2ccccc2)cc1)N1CCC(=Cc2ccccn2)CC1 [Example 68, N-(4-(benzyloxy)phenyl)-4-(pyridin-2-ylmethylene)piperidine-1-carboxamide] | 59.8%
23 | O=C(Nc1ccccn1)N1CCC(NC(=O)N2CCC(=Cc3cc(F)ccc3F)CC2)CC1 [Example 64, 4-(2,5-difluorobenzylidene)-N-(1-(pyridin-2-ylcarbamoyl)piperidin-4-yl)piperidine-1-carboxamide] | 51%
24 | O=C(Nc1nc2ccc(-c3cccnc3)cc2s1)N1CCC(=Cc2ccccn2)CC1 [Example 3, N-(6-(pyridin-3-yl)-benzo[d]thiazol-2-yl)-4-(pyridin-2-ylmethylene)-piperidine-1-carboxamide] | 85.7%
25 | O=C(NC1CCN(C(=O)c2ccccc2F)CC1)N1CCC(=Cc2cc(F)ccc2F)CC1 [Example 60, 4-(2,5-difluorobenzylidene)-N-(1-(2-fluorobenzoyl)piperidin-4-yl)piperidine-1-carboxamide] | 67.1%
26 | CN(C)C(=O)c1ccc(-c2ccc(NC(=O)N3CCC(=Cc4ccccn4)CC3)cn2)cc1 [Example 31, N-(6-(4-(dimethylcarbamoyl)phenyl)pyridin-3-yl)-4-(pyridin-2-ylmethylene)piperidine-1-carboxamide] | 52.9%
27 | COc1ccc(CN2CCC(NC(=O)N3CCC(=Cc4cc(F)ccc4F)CC3)CC2)cc1Cl [Example 36, N-(1-(3-chloro-4-methoxybenzyl)piperidin-4-yl)-4-(2,5-difluorobenzylidene)piperidine-1-carboxamide] | 58.3%
28 | O=C(Nc1cnc2ccccc2c1)N1CCC(=Cc2cc(F)ccc2F)CC1 [Example 42, 4-(2,5-difluorobenzylidene)-N-(quinolin-3-yl)piperidine-1-carboxamide] | 61.4%
29 | O=C(Nc1ccc(OCc2ccccc2)cc1)N1CCC(=Cc2cc(F)ccc2F)CC1 [Example 69, N-(4-(benzyloxy)phenyl)-4-(2,5-difluorobenzylidene)piperidine-1-carboxamide] | 51.3%
30 | O=C(Nc1ccc(Oc2ncccn2)cc1)N1CCC(=Cc2cc(F)ccc2F)CC1 [Example 70, 4-(2,5-difluorobenzylidene)-N-(4-(pyrimidin-2-yloxy)phenyl)piperidine-1-carboxamide] | 84.2%
31 | O=C(O)c1ccc(NC(=O)c2cnc(NC(=O)N3CCC(=Cc4ccccn4)CC3)s2)cc1 [Example 18, 4-(2-(4-(pyridin-2-ylmethylene)piperidine-1-carboxamido)thiazole-5-carboxamido)benzoic acid] | 65.1%
32 | O=C(NC1CCN(C(=O)c2cscn2)CC1)N1CCC(=Cc2cc(F)ccc2F)CC1 [Example 59, 4-(2,5-difluorobenzylidene)-N-(1-(thiazole-4-carbonyl)piperidin-4-yl)piperidine-1-carboxamide] | 76.8%
33 | O=C(Nc1ncc(C(=O)N2CCOCC2)s1)N1CCC(=Cc2cc(F)ccc2F)CC1 [Example 58, 4-(2,5-difluorobenzylidene)-N-(5-(morpholine-4-carbonyl)thiazol-2-yl)piperidine-1-carboxamide] | 80.8%
34 | O=C(Nc1ccc(NC(=O)N2CCC(=Cc3cc(F)ccc3F)CC2)cc1)c1cscn1 [Example 75, N-(4-(4-(2,5-difluorobenzylidene)piperidine-1-carboxamido)phenyl)thiazole-4-carboxamide] | 71.2%
